Measured values taken from publication PMC10763615, “Identification and engineering of potent cyclic peptides with selective or promiscuous binding through biochemical profiling and bioinformatic data analysis” (RSC Chemical Biology, 2023).
Like-named read-outs stand apart in the source and are kept apart here. Positions of bridges follow the written chain, without caps; N, C: chain ends. Residues, ends and D or L forms follow the SMILES beside them.

How the values were obtained:
Format in all cases: binding
FGF-R4 ECD = target: T1, FGF-R4 ECD (Homo sapiens, UniProt P22455); assay: single concentration BLI of crude peptides; details: read-out: KD (4)
T1 construct: DNA constructs for the extracellular domain (ECD) of human FGF-; HPC4 (C); made in house; host or cells: HEK 293-6E
T1 sequence (P22455 22-369 limits assumed): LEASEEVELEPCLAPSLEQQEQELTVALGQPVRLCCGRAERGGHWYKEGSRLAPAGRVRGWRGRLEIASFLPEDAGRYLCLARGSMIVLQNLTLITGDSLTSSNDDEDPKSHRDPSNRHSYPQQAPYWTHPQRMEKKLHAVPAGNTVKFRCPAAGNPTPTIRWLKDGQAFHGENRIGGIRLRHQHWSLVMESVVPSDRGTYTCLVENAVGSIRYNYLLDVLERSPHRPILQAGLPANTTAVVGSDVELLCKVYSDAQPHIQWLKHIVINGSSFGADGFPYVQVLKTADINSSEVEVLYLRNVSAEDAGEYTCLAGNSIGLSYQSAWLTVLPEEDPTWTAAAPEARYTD
Outline: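 Streptavidin biosensors carrying biotinylated FGF receptor ECD were immersed in peptide (~1 μM for crude single-point runs, a concentration series for purified peptides) and then in peptide-free buffer. KD was obtained by fitting the BLI association and dissociation curves.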

FGF-R1C ECD = target: T2, FGF-R1C ECD (Homo sapiens, UniProt P11362); assay: biochemical; parameters: DNA constructs for the extracellular domain (ECD) of human FGF-; HPC4 (C); made in house; host or cells: HEK 293-6E
T2 sequence (P11362 22-376 limits assumed): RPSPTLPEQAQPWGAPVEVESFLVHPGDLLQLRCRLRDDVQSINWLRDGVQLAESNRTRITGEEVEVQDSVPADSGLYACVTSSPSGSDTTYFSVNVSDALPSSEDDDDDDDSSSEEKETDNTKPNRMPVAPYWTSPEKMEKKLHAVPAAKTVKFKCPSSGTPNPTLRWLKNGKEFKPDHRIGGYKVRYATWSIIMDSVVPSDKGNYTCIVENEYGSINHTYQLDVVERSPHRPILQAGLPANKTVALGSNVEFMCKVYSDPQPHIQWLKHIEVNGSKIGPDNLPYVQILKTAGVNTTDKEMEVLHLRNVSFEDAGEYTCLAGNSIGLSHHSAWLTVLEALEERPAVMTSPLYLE
Outline: (§1)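 Biotinylated FGF-R ECD on streptavidin biosensors was dipped into ~1 μM crude peptide in PBS pH7.4 with 0.05% Tween-20 and 0.01% BSA for association, then into buffer for dissociation, and followed by BLI. Fitted KD values were adjusted for peptide concentration measured by UPLC-CAD.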

FGF-R3C ECD = target: T3, FGF-R3C ECD (Homo sapiens, UniProt P22607); assay: biochemical; parameters: DNA constructs for the extracellular domain (ECD) of human FGF-; HPC4 (C); made in house; host or cells: HEK 293-6E
T3 sequence (P22607 23-375 limits assumed): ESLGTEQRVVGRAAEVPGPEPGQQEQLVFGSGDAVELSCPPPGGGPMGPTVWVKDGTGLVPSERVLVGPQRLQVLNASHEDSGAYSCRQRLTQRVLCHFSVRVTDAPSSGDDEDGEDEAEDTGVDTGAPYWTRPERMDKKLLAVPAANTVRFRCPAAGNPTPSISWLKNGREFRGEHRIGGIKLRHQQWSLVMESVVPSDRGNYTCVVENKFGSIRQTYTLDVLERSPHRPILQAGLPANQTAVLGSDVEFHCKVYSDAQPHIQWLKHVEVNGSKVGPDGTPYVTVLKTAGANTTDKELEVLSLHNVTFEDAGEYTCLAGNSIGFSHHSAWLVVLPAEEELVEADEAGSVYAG
Outline: as §1

[1] = crude T18 selection 1 (1:1:1) peptides, single concentration BLI (Table S4)

CC[C@H](C)[C@@H]1NC(=O)[C@H](Cc2c[nH]cn2)NC(=O)[C@@H](NC(=O)[C@H](CCSC)NC(C)=O)CSSC[C@@H](C(=O)NCC(=O)N[C@@H](CO)C(=O)NCC(=O)N[C@@H](CO)C(=O)N[C@@H](CCC(=O)O)C(=O)N[C@@H](CCC(=O)O)C(=O)NCC(=O)N[C@@H](CO)C(=O)NCC(=O)N[C@@H](CO)C(=O)N[C@@H](CC(=O)O)C(=O)N[C@@H](Cc2ccc(O)cc2)C(=O)N[C@@H](CCCCN)C(=O)N[C@@H](CC(=O)O)C(=O)N[C@@H](CC(=O)O)C(=O)N[C@@H](CC(=O)O)C(=O)N[C@@H](CC(=O)O)C(=O)N[C@@H](CCCCN)C(N)=O)NC(=O)[C@H](Cc2c[nH]cn2)NC(=O)[C@H](CCCCN)NC(=O)[C@H](CCCNC(=N)N)NC(=O)[C@H](C(C)C)NC(=O)[C@H](CC(C)C)NC(=O)[C@H](CCC(N)=O)NC(=O)[C@H](Cc2c[nH]c3ccccc23)NC(=O)[C@H](Cc2ccc(O)cc2)NC(=O)[C@H](CCCNC(=N)N)NC1=O (Ac-MCHIRYWQLVRKHCGSGSEEGSGSDYKDDDDK-NH2; disulfide 2-14)
Kd (FGF-R4 ECD; [1]): 10 nM | Kd (FGF-R1C ECD): > 10 µM | Kd (FGF-R3C ECD): > 10 µM

CC[C@H](C)[C@@H]1NC(=O)[C@H](CC(C)C)NC(=O)[C@H](Cc2ccccc2)NC(=O)[C@H](Cc2ccc(O)cc2)NC(=O)[C@H](CCCCN)NC(=O)[C@H](C(C)C)NC(=O)[C@H](CCC(=O)O)NC(=O)[C@@H](NC(=O)[C@H](CCSC)NC(C)=O)CSSC[C@@H](C(=O)NCC(=O)N[C@@H](CO)C(=O)NCC(=O)N[C@@H](CO)C(=O)N[C@@H](CC(=O)O)C(=O)N[C@@H](Cc2ccc(O)cc2)C(=O)N[C@@H](CCCCN)C(=O)N[C@@H](CC(=O)O)C(=O)N[C@@H](CC(=O)O)C(=O)N[C@@H](CC(=O)O)C(=O)N[C@@H](CC(=O)O)C(=O)N[C@@H](CCCCN)C(N)=O)NC(=O)[C@H](Cc2c[nH]c3ccccc23)NC(=O)[C@H](CCCNC(=N)N)NC(=O)[C@H](CCCCN)NC(=O)[C@H](Cc2c[nH]c3ccccc23)NC1=O (Ac-MCEVKYFLIWKRWCGSGSDYKDDDDK-NH2; disulfide 2-14)
Kd (FGF-R4 ECD; [1]): 15 nM | Kd (FGF-R1C ECD): 0.65 µM | Kd (FGF-R3C ECD): > 10 µM

CC[C@H](C)[C@@H]1NC(=O)[C@H](Cc2c[nH]c3ccccc23)NC(=O)[C@H]([C@@H](C)CC)NC(=O)[C@H](CO)NC(=O)[C@@H]2CCCN2C(=O)[C@H](Cc2c[nH]cn2)NC(=O)[C@H](CO)NC(=O)[C@H](Cc2c[nH]c3ccccc23)NC(=O)[C@H](Cc2c[nH]c3ccccc23)NC(=O)[C@H](C(C)C)NC(=O)[C@@H](NC(=O)[C@H](CCSC)NC(C)=O)CSSC[C@@H](C(=O)NCC(=O)N[C@@H](CO)C(=O)NCC(=O)N[C@@H](CO)C(=O)N[C@@H](CC(=O)O)C(=O)N[C@@H](Cc2ccc(O)cc2)C(=O)N[C@@H](CCCCN)C(=O)N[C@@H](CC(=O)O)C(=O)N[C@@H](CC(=O)O)C(=O)N[C@@H](CC(=O)O)C(=O)N[C@@H](CC(=O)O)C(=O)N[C@@H](CCCCN)C(N)=O)NC1=O (Ac-MCVWWSHPSIWICGSGSDYKDDDDK-NH2; disulfide 2-13)
Kd (FGF-R4 ECD; [1]): > 10000 nM | Kd (FGF-R1C ECD): 0.065 µM | Kd (FGF-R3C ECD): > 10 µM

CC[C@H](C)[C@@H]1NC(=O)[C@H](Cc2ccccc2)NC(=O)[C@@H]2CCCN2C(=O)[C@H](CC(C)C)NC(=O)[C@H](Cc2ccccc2)NC(=O)[C@H](CC(C)C)NC(=O)[C@H](CC(=O)O)NC(=O)[C@H](Cc2ccccc2)NC(=O)[C@H]([C@@H](C)O)NC(=O)[C@@H](NC(=O)[C@@H](N)CCSC)CSSC[C@@H](C(=O)NCC(=O)N[C@@H](CO)C(=O)NCC(=O)N[C@@H](CO)C(=O)N[C@@H](CC(=O)O)C(=O)N[C@@H](Cc2ccc(O)cc2)C(=O)N[C@@H](CCCCN)C(=O)N[C@@H](CC(=O)O)C(=O)N[C@@H](CC(=O)O)C(=O)N[C@@H](CC(=O)O)C(=O)N[C@@H](CC(=O)O)C(=O)N[C@@H](CCCCN)C(N)=O)NC(=O)[C@H](Cc2ccccc2)NC1=O (H-MCTFDLFLPFIFCGSGSDYKDDDDK-NH2; disulfide 2-13)
Kd (FGF-R4 ECD; crude NNK peptides, single concentration BLI (Table S3)): > 10000 nM | Kd (FGF-R1C ECD): > 10 µM | Kd (FGF-R3C ECD): 0.177 µM

CC[C@H](C)[C@@H]1NC(=O)[C@H](CO)NC(=O)[C@@H](NC(=O)[C@H](CCSC)NC(C)=O)CSSC[C@@H](C(=O)NCC(=O)N[C@@H](CO)C(=O)NCC(=O)N[C@@H](CO)C(=O)N[C@@H](CC(=O)O)C(=O)N[C@@H](Cc2ccc(O)cc2)C(=O)N[C@@H](CCCCN)C(=O)N[C@@H](CC(=O)O)C(=O)N[C@@H](CC(=O)O)C(=O)N[C@@H](CC(=O)O)C(=O)N[C@@H](CC(=O)O)C(=O)N[C@@H](CCCCN)C(N)=O)NC(=O)[C@H](CC(C)C)NC(=O)[C@@H]2CCCN2C(=O)[C@H](CCCCN)NC(=O)[C@H]([C@@H](C)O)NC(=O)[C@H]([C@@H](C)CC)NC(=O)[C@H](CCCCN)NC(=O)[C@H](Cc2ccc(O)cc2)NC(=O)[C@H](Cc2c[nH]c3ccccc23)NC(=O)[C@H](CC(C)C)NC1=O (Ac-MCSILWYKITKPLCGSGSDYKDDDDK-NH2; disulfide 2-14)
Kd (FGF-R4 ECD; [1]): 13 nM | Kd (FGF-R1C ECD): > 10 µM | Kd (FGF-R3C ECD): > 10 µM

CC[C@H](C)[C@@H]1NC(=O)[C@H](CCC(=O)O)NC(=O)[C@H](CC(=O)O)NC(=O)[C@H](CCC(=O)O)NC(=O)[C@H](Cc2ccc(O)cc2)NC(=O)[C@@H](NC(=O)[C@H](CCSC)NC(C)=O)CSSC[C@@H](C(=O)NCC(=O)N[C@@H](CO)C(=O)NCC(=O)N[C@@H](CO)C(=O)N[C@@H](CC(=O)O)C(=O)N[C@@H](Cc2ccc(O)cc2)C(=O)N[C@@H](CCCCN)C(=O)N[C@@H](CC(=O)O)C(=O)N[C@@H](CC(=O)O)C(=O)N[C@@H](CC(=O)O)C(=O)N[C@@H](CC(=O)O)C(=O)N[C@@H](CCCCN)C(N)=O)NC(=O)[C@H](Cc2ccc(O)cc2)NC(=O)[C@H](CC(C)C)NC(=O)[C@H](C(C)C)NC(=O)[C@H](CCCCN)NC(=O)[C@H](Cc2ccc(O)cc2)NC(=O)[C@H](CC(C)C)NC(=O)[C@H](Cc2c[nH]c3ccccc23)NC1=O (Ac-MCYEDEIWLYKVLYCGSGSDYKDDDDK-NH2; disulfide 2-15)
Kd (FGF-R4 ECD; [1]): 9 nM | Kd (FGF-R1C ECD): > 10 µM | Kd (FGF-R3C ECD): > 10 µM

CC[C@H](C)[C@@H]1NC(=O)[C@H](CC(C)C)NC(=O)[C@H](Cc2ccc(O)cc2)NC(=O)[C@H](Cc2c[nH]cn2)NC(=O)[C@H](Cc2c[nH]cn2)NC(=O)CNC(=O)[C@H](CC(C)C)NC(=O)[C@H](C(C)C)NC(=O)[C@H](Cc2ccccc2)NC(=O)[C@H](CC(=O)O)NC(=O)[C@H](Cc2ccc(O)cc2)NC(=O)[C@H]([C@@H](C)O)NC(=O)[C@@H](NC(=O)[C@H](CCSC)NC(C)=O)CSSC[C@@H](C(=O)NCC(=O)N[C@@H](CO)C(=O)NCC(=O)N[C@@H](CO)C(=O)N[C@@H](CC(=O)O)C(=O)N[C@@H](Cc2ccc(O)cc2)C(=O)N[C@@H](CCCCN)C(=O)N[C@@H](CC(=O)O)C(=O)N[C@@H](CC(=O)O)C(=O)N[C@@H](CC(=O)O)C(=O)N[C@@H](CC(=O)O)C(=O)N[C@@H](CCCCN)C(N)=O)NC1=O (Ac-MCTYDFVLGHHYLICGSGSDYKDDDDK-NH2; disulfide 2-15)
Kd (FGF-R4 ECD; [1]): > 10000 nM | Kd (FGF-R1C ECD): > 10 µM | Kd (FGF-R3C ECD): > 10 µM
